Target: T1, AsPC-1 HiBiT-KRASG12D (Homo sapiens, UniProt P01116, G12D)
T1 construct: insert the HiBiT tag onto the N-terminus of one or more of the endogenous KRAS alleles; endogenous in cells; host or cells: AsPC-1 (ATCC CRL-1682), CRISPR-Cas9 knock-in clone, one tagged allele
Test: HiBiT degradation assay (G12D), AsPC-1 HiBiT-KRASG12D cells
Assay type: cell-based
Settings: 24 hours treatment; for DC50: AsPC-1 HiBiT-KRASG12D cells, HiBiT luminescence; for Dmax: ASPC1, AsPC-1 HiBiT-KRASG12D cells, maximum degradation observed
Text: Reagents. […] SW1573 cells are homozygous for the G12C mutation in KRAS, AsPC-1 cells are homozygous for the G12D mutation, and SW620 cells are homozygous for the G12V mutation. […] For degradation assays, 384 well plates were used. Alamar blue was purchased from ThermoFisher scientific (A50101) and used according to manufacturer instructions. The Nano-Glo® HiBiT Lytic Detection System and Nano-Glo® HiBiT Blotting System were purchased from Promega (#N3050 and #N2410) and used according to manufacturer instructions.
To create the AsPC-1 HiBiT-KRASG12D cell line, CRISPR-Cas9 was used to insert the HiBiT tag onto the N-terminus of one or more of the endogenous KRAS alleles. […] After knock-in of the tag, individual clones were isolated by single cell dilution and screened for HiBiT insertion by PCR. […] This clone was used in further studies.
HiBiT degradation assays (G12C and G12D). […] All assays were performed in triplicate. Cells were treated with compounds for 24 hours at 37° C. in an incubator containing 5% CO2. Following treatment, alamar blue was used to determine if any compounds led to a loss in cell viability after 24 hours. The 10× alamar blue reagent was added to a final concentration of 1× as recommended by the manufacturer and cells were returned to the incubator for 4 hours. Plates were then allowed to equilibrate to room temperature and fluorescence was measured using a Perkin-Elmer EnVision. After completion of the fluorescence read, the liquid from each well was removed and the cells were washed with PBS. The Nano-Glo® HiBiT detection reagent was prepared according to the manufacturer's instructions and added to each well after the PBS wash was removed. Following incubation at room temperature for 45 minutes, the luminescence was read using the ultra-sensitive luminescence aperture on the Envision instrument.
Data analysis. Fluorescence values from the alamar blue treatment were normalized to the DMSO-only control for each compound titration.

T1 sequence (P01116 1-188 isoform P01116-2 G12D): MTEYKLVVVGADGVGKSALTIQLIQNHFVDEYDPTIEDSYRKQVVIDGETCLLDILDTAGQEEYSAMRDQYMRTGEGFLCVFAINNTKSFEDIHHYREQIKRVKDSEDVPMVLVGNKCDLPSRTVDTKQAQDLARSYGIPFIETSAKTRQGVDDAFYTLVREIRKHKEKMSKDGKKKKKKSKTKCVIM

SMILES | DC50 | Dmax
CCc1cccc2cccc(-c3ncc4c(N5CCCCCC5)nc(OC[C@@]56CCCN5[C@@H](COC(=O)N5CCN(c7cc([C@H](C(=O)N8C[C@H](O)C[C@H]8C(=O)N[C@@H](C)c8ccc(-c9scnc9C)cc8)C(C)C)on7)CC5)CC6)nc4c3F)c12 (relative stereo) [Compound 49] | > 3000 nM | –
Cc1ncsc1-c1ccc([C@H](C)NC(=O)[C@@H]2C[C@@H](O)CN2C(=O)[C@@H](c2cc(N3CCN(C(=O)OC[C@H]4CC[C@]5(COc6nc(N7CC8CCC(C7)N8)c7cnc(-c8cccc9ccc(F)c(F)c89)c(F)c7n6)CCCN45)CC3)no2)C(C)C)cc1 (relative stereo) [Compound 63, [(3R,7aS)-7a-{[(4-{3,8-diazabicyclo[3.2.1]octan-3-yl}-7-(7,8-difluoronaphthalen-1-yl)-8-fluoropyrido[4,3-d]pyrimidin-2-yl)oxy]methyl}-hexahydro-1H-pyrrolizin-3-yl]methyl 4-{5-[(2R*)-1-[(2S,4R)-4-hydroxy-2-{[(1S)-1-[4-(4-methyl-1,3-thiazol-5-yl)phenyl]ethyl]carbamoyl}pyrrolidin-1-yl]-3-methyl-1-oxobutan-2-yl]-1,2-oxazol-3-yl}piperazine-1-carboxylate] | < 600 nM | 20 to 60%
Cc1ncsc1-c1ccc([C@H](C)NC(=O)[C@@H]2C[C@@H](O)CN2C(=O)[C@@H](c2cc(N3CC4(CCN(CCOc5nc(N6CC7CCC(C6)N7)c6cnc(-c7cc(O)cc8ccc(F)c(F)c78)c(F)c6n5)CC4)C3)no2)C(C)C)cc1 (relative stereo) [Compound 68, (2S,4R)-1-[(2R*)-2-[3-(7-{2-[(4-{3,8-diazabicyclo[3.2.1]octan-3-yl}-7-(7,8-difluoro-3-hydroxynaphthalen-1-yl)-8-fluoropyrido[4,3-d]pyrimidin-2-yl)oxy]ethyl}-2,7-diazaspiro[3.5]nonan-2-yl)-1,2-oxazol-5-yl]-3-methylbutanoyl]-4-hydroxy-N-[(1S)-1-[4-(4-methyl-1,3-thiazol-5-yl)phenyl]ethyl]pyrrolidine-2-carboxamide] | < 600 nM | 80 to 100%
CCc1cccc2cc(O)cc(-c3ncc4c(N5CC6CCC(C5)N6)nc(OCCN5CC[C@H]6CN(c7cc([C@H](C(=O)N8C[C@H](O)C[C@H]8C(=O)N[C@@H](C)c8ccc(-c9scnc9C)cc8)C(C)C)on7)C[C@H]6C5)nc4c3F)c12 (relative stereo) [Compound 69, (2S,4R)-1-[(2R*)-2-{3-[(3aR**,7aR***)-5-{2-[(4-{3,8-diazabicyclo[3.2.1]octan-3-yl}-7-(8-ethyl-3-hydroxynaphthalen-1-yl)-8-fluoropyrido[4,3-d]pyrimidin-2-yl)oxy]ethyl}-octahydro-1H-pyrrolo[3,4-c]pyridin-2-yl]-1,2-oxazol-5-yl}-3-methylbutanoyl]-4-hydroxy-N-[(1S)-1-[4-(4-methyl-1,3-thiazol-5-yl)phenyl]ethyl]pyrrolidine-2-carboxamide] | < 600 nM | 80 to 100%
CCc1cccc2cc(O)cc(-c3ncc4c(N5CC6CCC(C5)N6)nc(OCCN5CC[C@H]6CN(c7cc([C@@H](C(=O)N8C[C@H](O)C[C@H]8C(=O)N[C@@H](C)c8ccc(-c9scnc9C)cc8)C(C)C)on7)C[C@H]6C5)nc4c3F)c12 (relative stereo) [Compound 70, (2S,4R)-1-[(2R*)-2-{3-[(3aR**,7aR***)-5-{2-[(4-{3,8-diazabicyclo[3.2.1]octan-3-yl}-7-(8-ethyl-3-hydroxynaphthalen-1-yl)-8-fluoropyrido[4,3-d]pyrimidin-2-yl)oxy]ethyl}-octahydro-1H-pyrrolo[3,4-c]pyridin-2-yl]-1,2-oxazol-5-yl}-3-methylbutanoyl]-4-hydroxy-N-[(1S)-1-[4-(4-methyl-1,3-thiazol-5-yl)phenyl]ethyl]pyrrolidine-2-carboxamide] | > 3000 nM | –
CCc1cccc2cc(O)cc(-c3ncc4c(N5CC6CCC(C5)N6)nc(OCCN5CC[C@@H]6CN(c7cc([C@H](C(=O)N8C[C@H](O)C[C@H]8C(=O)N[C@@H](C)c8ccc(-c9scnc9C)cc8)C(C)C)on7)C[C@@H]6C5)nc4c3F)c12 (relative stereo) [Compound 71, (2S,4R)-1-[(2R*)-2-{3-[(3aR**,7aR***)-5-{2-[(4-{3,8-diazabicyclo[3.2.1]octan-3-yl}-7-(8-ethyl-3-hydroxynaphthalen-1-yl)-8-fluoropyrido[4,3-d]pyrimidin-2-yl)oxy]ethyl}-octahydro-1H-pyrrolo[3,4-c]pyridin-2-yl]-1,2-oxazol-5-yl}-3-methylbutanoyl]-4-hydroxy-N-[(1S)-1-[4-(4-methyl-1,3-thiazol-5-yl)phenyl]ethyl]pyrrolidine-2-carboxamide] | < 600 nM | 80 to 100%
CCc1cccc2cc(O)cc(-c3ncc4c(N5CC6CCC(C5)N6)nc(OCCN5CC[C@@H]6CN(c7cc([C@@H](C(=O)N8C[C@H](O)C[C@H]8C(=O)N[C@@H](C)c8ccc(-c9scnc9C)cc8)C(C)C)on7)C[C@@H]6C5)nc4c3F)c12 (relative stereo) [Compound 72, (2S,4R)-1-[(2R*)-2-{3-[(3aR**,7aR***)-5-{2-[(4-{3,8-diazabicyclo[3.2.1]octan-3-yl}-7-(8-ethyl-3-hydroxynaphthalen-1-yl)-8-fluoropyrido[4,3-d]pyrimidin-2-yl)oxy]ethyl}-octahydro-1H-pyrrolo[3,4-c]pyridin-2-yl]-1,2-oxazol-5-yl}-3-methylbutanoyl]-4-hydroxy-N-[(1S)-1-[4-(4-methyl-1,3-thiazol-5-yl)phenyl]ethyl]pyrrolidine-2-carboxamide] | > 3000 nM | < 20%
CCc1cccc2cc(O)cc(-c3ncc4c(N5CC6CCC(C5)N6)nc(OCCN5CC[C@H]6[C@H](CCN6c6cc([C@H](C(=O)N7C[C@H](O)C[C@H]7C(=O)N[C@@H](C)c7ccc(-c8scnc8C)cc7)C(C)C)on6)C5)nc4c3F)c12 (relative stereo) [Compound 73, (2S,4R)-1-[(2R*)-2-{3-[(3aR**,7aR***)-5-{2-[(4-{3,8-diazabicyclo[3.2.1]octan-3-yl}-7-(8-ethyl-3-hydroxynaphthalen-1-yl)-8-fluoropyrido[4,3-d]pyrimidin-2-yl)oxy]ethyl}-octahydro-1H-pyrrolo[3,2-c]pyridin-1-yl]-1,2-oxazol-5-yl}-3-methylbutanoyl]-4-hydroxy-N-[(1S)-1-[4-(4-methyl-1,3-thiazol-5-yl)phenyl]ethyl]pyrrolidine-2-carboxamide] | < 600 nM | 80 to 100%
CCc1cccc2cc(O)cc(-c3ncc4c(N5CC6CCC(C5)N6)nc(OCCN5CC[C@@H]6[C@@H](CCN6c6cc([C@H](C(=O)N7C[C@H](O)C[C@H]7C(=O)N[C@@H](C)c7ccc(-c8scnc8C)cc7)C(C)C)on6)C5)nc4c3F)c12 (relative stereo) [Compound 74, (2S,4R)-1-[(2R*)-2-{3-[(3aR**,7aR***)-5-{2-[(4-{3,8-diazabicyclo[3.2.1]octan-3-yl}-7-(8-ethyl-3-hydroxynaphthalen-1-yl)-8-fluoropyrido[4,3-d]pyrimidin-2-yl)oxy]ethyl}-octahydro-1H-pyrrolo[3,2-c]pyridin-1-yl]-1,2-oxazol-5-yl}-3-methylbutanoyl]-4-hydroxy-N-[(1S)-1-[4-(4-methyl-1,3-thiazol-5-yl)phenyl]ethyl]pyrrolidine-2-carboxamide] | < 600 nM | 80 to 100%
CCc1cccc2cc(O)cc(-c3ncc4c(N5CC6CCC(C5)N6)nc(OCCN5CC[C@H]6[C@H](CCN6c6cc([C@@H](C(=O)N7C[C@H](O)C[C@H]7C(=O)N[C@@H](C)c7ccc(-c8scnc8C)cc7)C(C)C)on6)C5)nc4c3F)c12 (relative stereo) [Compound 75, (2S,4R)-1-[(2R*)-2-{3-[(3aR**,7aR***)-5-{2-[(4-{3,8-diazabicyclo[3.2.1]octan-3-yl}-7-(8-ethyl-3-hydroxynaphthalen-1-yl)-8-fluoropyrido[4,3-d]pyrimidin-2-yl)oxy]ethyl}-octahydro-1H-pyrrolo[3,2-c]pyridin-1-yl]-1,2-oxazol-5-yl}-3-methylbutanoyl]-4-hydroxy-N-[(1S)-1-[4-(4-methyl-1,3-thiazol-5-yl)phenyl]ethyl]pyrrolidine-2-carboxamide] | 1000 to 3000 nM | 60 to 80%
CCc1cccc2cc(O)cc(-c3ncc4c(N5CC6CCC(C5)N6)nc(OCCN5CC[C@@H]6[C@@H](CCN6c6cc([C@@H](C(=O)N7C[C@H](O)C[C@H]7C(=O)N[C@@H](C)c7ccc(-c8scnc8C)cc7)C(C)C)on6)C5)nc4c3F)c12 (relative stereo) [Compound 76, (2S,4R)-1-[(2R*)-2-{3-[(3aR**,7aR***)-5-{2-[(4-{3,8-diazabicyclo[3.2.1]octan-3-yl}-7-(8-ethyl-3-hydroxynaphthalen-1-yl)-8-fluoropyrido[4,3-d]pyrimidin-2-yl)oxy]ethyl}-octahydro-1H-pyrrolo[3,2-c]pyridin-1-yl]-1,2-oxazol-5-yl}-3-methylbutanoyl]-4-hydroxy-N-[(1S)-1-[4-(4-methyl-1,3-thiazol-5-yl)phenyl]ethyl]pyrrolidine-2-carboxamide] | 1000 to 3000 nM | 20 to 60%

From patent publication US20250206732A1, “COMPOUNDS AND METHODS FOR THE TARGETED DEGRADATION OF KRAS” (Arvinas Operations, Inc., priority 2022, published 2025)
